This note sets out measurements from patent EP4624471A1, “PKMYT1 INHIBITOR, PREPARATION METHOD THEREFOR, AND PHARMACEUTICAL COMPOSITION AND USE THEREOF” (Shanghai Qilu Pharmaceutical Research and Development …, priority 2022, dated 2024).

Each structure is given as a SMILES string.

For the first experiment, the target named is T1, PKMYT1 enzyme (Homo sapiens, UniProt Q99640).
T1 construct: purchased Thermo Scientific A33387
T1 sequence (Q99640 1-499): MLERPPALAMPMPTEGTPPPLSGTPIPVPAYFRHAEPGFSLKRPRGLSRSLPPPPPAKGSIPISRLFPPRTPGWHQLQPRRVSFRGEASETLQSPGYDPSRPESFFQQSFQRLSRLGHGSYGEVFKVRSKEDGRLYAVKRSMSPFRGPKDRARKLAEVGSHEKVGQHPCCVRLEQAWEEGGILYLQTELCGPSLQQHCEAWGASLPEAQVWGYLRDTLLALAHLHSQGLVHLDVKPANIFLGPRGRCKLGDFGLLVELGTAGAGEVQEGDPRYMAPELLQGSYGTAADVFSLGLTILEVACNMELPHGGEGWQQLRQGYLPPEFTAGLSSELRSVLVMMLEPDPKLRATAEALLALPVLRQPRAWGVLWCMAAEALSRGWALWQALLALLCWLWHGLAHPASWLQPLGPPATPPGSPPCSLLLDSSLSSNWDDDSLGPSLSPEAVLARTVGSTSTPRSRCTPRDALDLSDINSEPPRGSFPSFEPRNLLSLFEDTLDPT
Kind of experiment: PKMYT1 enzyme inhibition activity, ADP-GLO method. It is filed as biochemical. Particulars: PKMYT1 enzyme 10 nM, ATP 5 µM, 37°C 90 minutes; read-out: ADP-GLO IC50. On the technique in general: ADP-Glo turns the ADP formed in a reaction into a luminescent signal.
Method: Enzyme inhibition activity of compounds of the present disclosure
The enzyme activity of some of the example compounds was verified using the ADP-GLO method.
PKMYT1 enzyme protein was purchased from Thermo Scientific (Cat. No.: A33387), and the ADP-GLO kit was purchased from Promega (Cat. No.: V9103).
PKMYT1 enzyme activity reaction buffer: 70 mM HEPES, 3 mM MgCl2, 3 mM MnCl2, 50 µg mL-1PEG20000, 3 µM sodium orthovanadate, 1.2 mM DTT.
The reaction plate with the added compounds was centrifuged at 2500 rpm for 1 minute.
The prepared enzyme solution was added to the reaction plate, 5 µL per well, and the final concentration of enzyme was 10 nM. The reaction plate was centrifuged at 1000 rpm for 1 minute. The reaction plate was placed in an incubator at 37°C for 15 minutes.
The prepared ATP substrate solution was added to the reaction plate, 5 µL per well, and the final concentration of ATP was 5 µM. The reaction plate was centrifuged at 1000 rpm for 1 minute. After sealing the plate with aluminum foil, the plate was placed in an incubator and the reaction was carried out at 37°C for 90 minutes.
10 µL of ADP-glo™ reagent was added to stop the kinase reaction and consume unconsumed ATP, leaving only ADP and a very low ATP background. The reaction plate was centrifuged at 1000 rpm for 1 minute. After sealing the plate with aluminum foil, the reaction was carried out at room temperature for 60 minutes.
ADP was converted to ATP by adding 20 µL of kinase detection reagent, and luciferase and luciferin were introduced to detect ATP. The reaction plate was centrifuged at 1000 rpm for 1 minute. After sealing the plate with aluminum foil, the reaction was carried out at room temperature for 60 minutes.
The ADP-GLO luminescence signal values were read by the microplate reader PHERAstar, and the readings were analyzed.
Consider `Cc1ccc(O)c(C)c1-n1c(N)c(C(N)=O)c2cnc(-c3ccccc3)nc21` [Example 11, 6-Amino-7-(3-hydroxy-2,6-dimethylphenyl)-2-phenyl-7H-pyrrolo[2,3-d]pyrimidine-5-carboxamide], for which the IC50 – broadly, the point on the concentration scale where inhibition reaches its midpoint – was determined as 15.7 nM.
Take `Cc1ccc(O)c(C)c1-n1c(N)c(C(N)=O)c2cnc(CC(C)C)nc21` [Example 57, 6-Amino-7-(3-hydroxy-2,6-dimethylphenyl)-2-isobutyl-7H-pyrrolo[2,3-d]pyrimidine-5-carboxamide]: the IC50 stood at 3.04 nM.
Consider `[2H]C([2H])([2H])c1c(O)c(F)cc(C)c1-n1c(N)c(C(N)=O)c2cc(C(F)(F)F)c(C)nc21` (atropisomer, axis not shown) [Example 195.1], for which the IC50 turned out to be 2.8 nM.
`CCc1cc2c(C(N)=O)c(N)n(-c3c(C)cc(F)c(O)c3C)c2nc1C` (atropisomer, axis not shown) [Example 143]: the IC50 was 18.2 nM.
Regarding `Cc1cc(F)c(O)c(C)c1-n1c(N)c(C(N)=O)c2c3cnccc3c(C)cc21` [Example 207], the IC50 was 4.08 nM.
Regarding `C=Cc1cc2c(C(N)=O)c(N)n(-c3c(C)cc(F)c(O)c3C)c2nc1C` (single isomer, unassigned) [Example 142.1], the half-maximal inhibitory concentration (IC50) came out at 10.1 nM.
Turning to `Cc1cc(F)c(O)c(C)c1-n1c(N)c(C(N)=O)c2cc(C3=CCOCC3)c(C)nc21` [Example 165], the IC50 turned out to be 33.4 nM.
For `Cc1ccc(O)c(C)c1-n1c(N)c(C(N)=O)c2cnc(NC3CCCC3)nc21` [Example 76], the half-inhibitory concentration (IC50) is 4.02 nM.
For `Cc1c(O)cc(F)c(C)c1-n1c(N)c(C(N)=O)c2cc(F)cnc21` [Example 82], the IC50 was 5.43 nM.
Still for that read-out and setting: the same measure for `Cc1cc2c(C(N)=O)c(N)n(-c3c(C)cc(F)c(O)c3C)c2nc1CC(C)C` [Example 151]: 20.1 nM; for `COC(C)(C)c1cnc2c(c1)c(C(N)=O)c(N)n2-c1c(C)cc(F)c(O)c1C` [Example 146]: 35.2 nM; for `C=C(C)c1cnc2c(c1)c(C(N)=O)c(N)n2-c1c(C)cc(F)c(O)c1C` [Example 155]: 23.2 nM.
Regarding `[2H]C([2H])([2H])c1cc(F)c(O)c(C([2H])([2H])[2H])c1-n1c(N)c(C(N)=O)c2cc(C(F)(F)F)c(C)nc21` [Example 193], the IC50 was determined as 7.94 nM.
As to `Cc1cc2c(C(N)=O)c(N)n(-c3c(C)c(O)c(F)c(F)c3C)c2nc1C` [Example 54], the half-maximal inhibitory concentration (IC50) is 17.5 nM.
Turning to `CCc1ncc2c(C(N)=O)c(N)n(-c3c(C)ccc(O)c3C)c2n1` [Example 8, 6-Amino-2-ethyl-7-(3-hydroxy-2,6-dimethylphenyl)-7H-pyrrolo[2,3-d]pyrimidine-5-carboxamide], the half-maximal inhibitory concentration (IC50) worked out at 10.5 nM.
Same read-out and setting: for `Cc1ccc(O)c(C)c1-n1c(N)c(C(N)=O)c2cnc(N3CCC(F)(F)CC3)nc21` [Example 37, 6-Amino-2-(4,4-difluoropiperidin-1-yl)-7-(3-hydroxy-2,6-dimethylphenyl)-7H-pyrrolo[2,3-d]pyrimidine-5-carboxamide] the value was 3.09 nM; for `Cc1cc(F)c(O)c(C)c1-n1c(N)c(C(N)=O)c2cc(C3CCOCC3)c(C)nc21` (atropisomer, axis not shown) [Example 163.1], 5.7 nM; for `Cc1cc(F)c(O)c(C)c1-n1c(N)c(C(N)=O)c2cc3c(nc21)CCCC3` (atropisomer, axis not shown) [Example 177.2], 8.15 nM.
In the case of `Cc1ncc2c(C(N)=O)c(N)n(-c3c(C)c(O)cc(F)c3C)c2c1F` (racemic) [Example 71], the concentration for half-maximal inhibition (IC50) was 7.99 nM.
For `Cc1c(O)cc(F)c(C)c1-n1c(N)c(C(N)=O)c2cc(C(C)C)cnc21` (atropisomer, axis not shown) [Example 113.1], the IC50 worked out at 93.1 nM.
As to `COc1cnc2c(c1)c(C(N)=O)c(N)n2-c1c(C)cc(F)c(O)c1C` [Example 149], the 50% inhibitory concentration (IC50) is 12.6 nM.
`Cc1cc(F)c(O)c(C)c1-n1c(N)c(C(N)=O)c2cc(C(C)(C)O)c(C)nc21` (atropisomer, axis not shown) [Example 172.1]: the IC50 stood at 4.6 nM.
On to `Cc1cc2c(C(N)=O)c(N)n(-c3c(C)c(F)cc(O)c3F)c2nc1C` [Example 107], for which the IC50 is 14.1 nM.
With `Cc1cc2c(C(N)=O)c(N)n(-c3c(C)cnc(O)c3C)c2nc1C` [Example 50, 2-Amino-1-(2-hydroxy-3,5-dimethylpyridin-4-yl)-5,6-dimethyl-1H-pyrrolo[2,3-b]pyridine-3-carboxamide], the IC50 turned out to be 220 nM.
For the compound `[2H]C([2H])([2H])c1nc2c(cc1C(F)(F)F)c(C(N)=O)c(N)n2-c1c(C)cc(F)c(O)c1C` (atropisomer, axis not shown) [Example 194.1], the concentration for half-maximal inhibition (IC50) came out at 5.3 nM.
Turning to `Cc1ccc(O)c(C)c1-n1c(N)c(C(N)=O)c2cnc(Nc3ccccc3)nc21` [Example 33, 6-Amino-7-(3-hydroxy-2,6-dimethylphenyl)-2-(phenylamino)-7H-pyrrolo[2,3-d]pyrimidine-5-carboxamide], the IC50 is 11.3 nM.
For the compound `Cc1ccc(O)c(C)c1-n1c(N)c(C(N)=O)c2cnccc21` [Example 30, 2-Amino-1-(3-hydroxy-2,6-dimethylphenyl)-1H-pyrrolo[3,2-c]pyridine-3-carboxamide], the concentration for half-maximal inhibition (IC50) amounted to 13.7 nM.
The same measure, in the same setting: the same measure for `Cc1cc2c(C(N)=O)c(N)n(-c3c(C)c(O)cc(F)c3C)c2nc1-c1ccnn1C` [Example 124]: 10.4 nM; for `Cc1ccc(O)c(C)c1-n1c(N)c(C(N)=O)c2c3cnccc3c(C)cc21` (racemic) [Example 189, 8-amino-7-(3-hydroxy-2,6-dimethylphenyl)-S-methyl-7H-pyrrolo[2,3-h]isoquinoline-9-carboxamide]: 5 nM; for `Cc1cc2c(C(N)=O)c(N)n(-c3c(C)c(O)cc(F)c3C)c2nc1C(C)C` [Example 139]: 143 nM.
As to `Cc1cc(F)c(O)c(C)c1-n1c(N)c(C(N)=O)c2cc(Cl)c(C)nc21` (racemic) [Example 60], the IC50 is 4.31 nM.
Still for that read-out and setting: the same measure for `Cc1c(O)cc(F)c(C)c1-n1c(N)c(C(N)=O)c2c3cnccc3c(C)cc21` [Example 208]: 4.52 nM; for `Cc1ccc(O)c(C)c1-n1c(N)c(C(N)=O)c2cnc(C3=CCOCC3)nc21` [Example 16, 6-Amino-2-(3,6-dihydro-2H-pyran-4-yl)-7-(3-hydroxy-2,6-dimethylphenyl)-7H-pyrrolo[2,3-d]pyrimidine-5-carboxamide]: 11.7 nM; for `CCNc1ncc2c(C(N)=O)c(N)n(-c3c(C)ccc(O)c3C)c2n1` [Example 75]: 5.5 nM.
As to `Cc1cc(F)c(O)c(C)c1-n1c(N)c(C(N)=O)c2cc(C3CC3)cnc21` (atropisomer, axis not shown) [Example 144], the IC50 is 5.74 nM.
For the compound `Cc1cc2c(C(N)=O)c(N)n(-c3c(C)c(O)cc(F)c3C)c2nc1-c1ccccc1` [Example 137], the half-maximal inhibitory concentration (IC50) was 36.2 nM.
Take `CCc1ccc(O)c(C)c1-n1c(N)c(C(N)=O)c2cnc(C)nc21` [Example 68]: the IC50 came out at 299 nM.
With `Cc1cc2c(C(N)=O)c(N)n(-c3c(C)cc(F)c(O)c3C)c2nc1C` [Example 23, 2-Amino-1-(4-fluoro-3-hydroxy-2,6-dimethylphenyl)-5,6-dimethyl-1H-pyrrolo[2,3-b]pyridine-3-carboxamide], the IC50 came to 8.58 nM.
Still for that read-out and setting: for `Cc1cc(F)c(O)c(C)c1-n1c(N)c(C(N)=O)c2cc(N3CCCC3)c(C)nc21` (racemic) [Example 162] the value was 14.5 nM; for `Cc1cc(F)c(O)c(C)c1-n1c(N)c(C(N)=O)c2cc(CC(C)C)c(C)nc21` (racemic) [Example 166], 8.4 nM.
`Cc1ccc(O)c(C)c1-n1c(N)c(C(N)=O)c2c3c(c(C)nc21)OCC3` [Example 187]: the IC50 is 43.5 nM.
On to `C=C(C)c1cc2c(C(N)=O)c(N)n(-c3c(C)cc(F)c(O)c3C)c2nc1C` [Example 156], for which the IC50 was found to be 26.4 nM.
On to `Cc1cc(F)c(O)c(C)c1-n1c(N)c(C(N)=O)c2cc(OC(C)C)c(C)nc21` [Example 160], for which the 50% inhibitory concentration (IC50) stood at 7.85 nM.
Consider `CCc1cnc2c(c1)c(C(N)=O)c(N)n2-c1c(C)cc(F)c(O)c1C` [Example 140], for which the half-maximal inhibitory concentration (IC50) was determined as 7.73 nM.
In the case of `Cc1cc2c(C(N)=O)c(N)n(-c3c(C)c(O)cc(F)c3C)c2c(F)c1C` [Example 70], the concentration for half-maximal inhibition (IC50) is 34 nM.
As to `CCCN(CC)c1ncc2c(C(N)=O)c(N)n(-c3c(C)ccc(O)c3C)c2n1` [Example 83], the 50% inhibitory concentration (IC50) came out at 41.8 nM.
Take `Cc1nc2c(cc1C(=O)O)c(C(N)=O)c(N)n2-c1c(C)c(O)cc(F)c1C` [Example 90]: the IC50 was 90.7 nM.
As for `COc1c(O)ccc(C)c1-n1c(N)c(C(N)=O)c2cc(C)c(C)nc21` [Example 94], the half-maximal inhibitory concentration (IC50) is 408 nM.
With `CCc1nc(C)nc2c1c(C(N)=O)c(N)n2-c1c(C)ccc(O)c1C` (atropisomer, axis not shown) [Example 66.1], the IC50 is 16.5 nM.
With `Cc1cc(F)c(O)c(C)c1-n1c(N)c(C(N)=O)c2cc(CC(C)C)cnc21` [Example 147], the 50% inhibitory concentration (IC50) worked out at 13.6 nM.
For `Cc1c(O)cc(F)c(C)c1-n1c(N)c(C(N)=O)c2cc(C#N)cnc21` [Example 98], the concentration for half-maximal inhibition (IC50) worked out at 8.11 nM.
On to `COc1cc2c(C(N)=O)c(N)n(-c3c(C)cc(F)c(O)c3C)c2nc1C` (racemic) [Example 158], for which the 50% inhibitory concentration (IC50) came out at 8.18 nM.

Staying with this experiment, now noted: read-out: ADP-GLO IC50; PKMYT1 enzyme 10 nM, ATP 5 µM, 37°C 90 minutes.
Turning to `Cc1ccc(O)c(C)c1-n1c(N)c(C(N)=O)c2cc3c(ccn3C)nc21` [Example 206], the half-maximal inhibitory concentration (IC50) amounted to 6.58 nM.
